#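 Cells were grown in 96-well plates and exposed to each compound for 48 hours at five concentrations; endpoints were interpolated linearly between bracketing concentrations, or set to the highest concentration if not reached. At the GI50, growth is halved. TGI is the concentration that stops growth completely.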
# Assays:
# Test in all cases: NCI tumour cell line growth inhibition, 48 h
# [1] = tested on: SK-OV-3 ovarian
# [2] = tested on: PC-3 prostate
# [3] = tested on: IGROV1 ovarian
# [4] = tested on: OVCAR-3 ovarian
# [5] = tested on: OVCAR-8 ovarian
# [6] = tested on: HOP-92 NSCLC
# [7] = tested on: HS 578T breast
# [8] = tested on: T-47D breast
# [9] = tested on: HOP-62 NSCLC
# [10] = tested on: MDA-MB-468 breast
# [11] = tested on: SK-MEL-5 melanoma
# [12] = tested on: UO-31 renal
# [13] = tested on: NCI-H23 lung
# [14] = tested on: SF-539 CNS
# [15] = tested on: A498 renal
# [16] = tested on: NCI/ADR-RES ovarian
# [17] = tested on: HCT-116 colon
# [18] = tested on: SNB-75 CNS
# [19] = tested on: M14 melanoma
# [20] = tested on: SK-MEL-28 melanoma
# [21] = tested on: OVCAR-5 ovarian
# [22] = tested on: COLO 205 colon
# [23] = tested on: KM12 colon
# [24] = tested on: SW-620 colon
# [25] = tested on: NCI-H522 lung
# [26] = tested on: CCRF-CEM leukemia
# [27] = tested on: SK-MEL-2 melanoma
# [28] = tested on: MALME-3M melanoma
# [29] = tested on: RXF 393 renal
# [30] = tested on: TK-10 renal
# [31] = tested on: HCC-2998 colon
# [32] = tested on: OVCAR-4 ovarian
# [33] = tested on: CAKI-1 renal
# [34] = tested on: SR leukemia
# [35] = tested on: BT-549 breast
# [36] = tested on: U251 CNS
# [37] = tested on: SF-295 CNS
# [38] = tested on: EKVX NSCLC
# [39] = tested on: 786-0 renal
# [40] = tested on: A549 NSCLC
# [41] = tested on: NCI-H460 lung
# [42] = tested on: MDA-MB-435
# [43] = tested on: RPMI-8226 leukemia
# [44] = tested on: MCF7 breast
# [45] = tested on: DU-145 prostate
# [46] = tested on: SNB-19 CNS
# [47] = tested on: SF-268 CNS
# [48] = tested on: MDA-MB-231 breast
# [49] = tested on: K-562 leukemia
# [50] = tested on: NCI-H226 lung
# [51] = tested on: MOLT-4 leukemia
# [52] = tested on: UACC-62 melanoma
# [53] = tested on: HL-60(TB) leukemia
# [54] = tested on: HCT-15 colon
# [55] = tested on: SN12C renal
# [56] = tested on: LOX IMVI melanoma
# [57] = tested on: HT29 colon
# [58] = tested on: ACHN renal
compound,measurement,setting,value
Cc1ccc(Nc2nnc(-c3c[nH]c4ccccc34)o2)c(C)c1,GI50,[1],502 nM
same,TGI,[1],23800 nM
same,GI50,[2],583 nM
same,TGI,[2],> 100000 nM
same,GI50,[3],569 nM
same,TGI,[3],20400 nM
same,GI50,[4],307 nM
same,TGI,[4],3530 nM
same,GI50,[5],463 nM
same,TGI,[5],9100 nM
same,GI50,[6],8530 nM
same,TGI,[6],43600 nM
same,GI50,[7],333 nM
same,TGI,[7],9170 nM
same,GI50,[8],325 nM
same,TGI,[8],> 100000 nM
same,GI50,[9],475 nM
same,TGI,[9],24300 nM
same,GI50,[10],300 nM
same,TGI,[10],1030 nM
same,GI50,[11],353 nM
same,TGI,[11],15000 nM
same,GI50,[12],530 nM
same,TGI,[12],57000 nM
same,GI50,[13],445 nM
same,TGI,[13],12700 nM
same,GI50,[14],286 nM
same,TGI,[14],932 nM
same,GI50,[15],18200 nM
same,TGI,[15],56600 nM
same,GI50,[16],109 nM
same,TGI,[16],484 nM
same,GI50,[17],645 nM
same,TGI,[17],29200 nM
same,GI50,[18],255 nM
same,TGI,[18],968 nM
same,GI50,[19],324 nM
same,TGI,[19],16000 nM
same,GI50,[20],639 nM
same,TGI,[20],31800 nM
same,GI50,[21],756 nM
same,TGI,[21],24200 nM
same,GI50,[22],447 nM
same,TGI,[22],2950 nM
same,GI50,[23],435 nM
same,TGI,[23],14500 nM
same,GI50,[24],325 nM
same,TGI,[24],> 100000 nM
same,GI50,[25],163 nM
same,TGI,[25],1210 nM
same,GI50,[26],311 nM
same,TGI,[26],> 35100 nM
same,GI50,[27],302 nM
same,TGI,[27],13300 nM
same,GI50,[28],323 nM
same,TGI,[28],18800 nM
same,GI50,[29],375 nM
same,TGI,[29],7440 nM
same,GI50,[30],4030 nM
same,TGI,[30],> 100000 nM
same,GI50,[31],625 nM
same,TGI,[31],4560 nM
same,GI50,[32],14900 nM
same,TGI,[32],> 100000 nM
same,GI50,[33],483 nM
same,TGI,[33],38900 nM
same,GI50,[34],141 nM
same,TGI,[34],> 100000 nM
same,GI50,[35],435 nM
same,TGI,[35],19900 nM
same,GI50,[36],394 nM
same,TGI,[36],15400 nM
same,GI50,[37],236 nM
same,TGI,[37],3240 nM
same,GI50,[38],455 nM
same,TGI,[38],> 73100 nM
same,GI50,[39],768 nM
same,TGI,[39],11300 nM
same,GI50,[40],868 nM
same,TGI,[40],> 100000 nM
same,GI50,[41],443 nM
same,TGI,[41],13600 nM
same,GI50,[42],46 nM
same,TGI,[42],250 nM
same,GI50,[43],424 nM
same,TGI,[43],> 39100 nM
same,GI50,[44],283 nM
same,TGI,[44],13200 nM
same,GI50,[45],664 nM
same,TGI,[45],> 45300 nM
same,GI50,[46],512 nM
same,TGI,[46],43700 nM
same,GI50,[47],714 nM
same,TGI,[47],30900 nM
same,GI50,[48],620 nM
same,TGI,[48],15900 nM
same,GI50,[49],80.1 nM
same,TGI,[49],> 100000 nM
same,GI50,[50],1450 nM
same,TGI,[50],> 100000 nM
same,GI50,[51],478 nM
same,TGI,[51],46200 nM
same,GI50,[52],277 nM
same,TGI,[52],12200 nM
same,GI50,[53],274 nM
same,TGI,[53],17800 nM
same,GI50,[54],170 nM
same,TGI,[54],16700 nM
same,GI50,[55],522 nM
same,TGI,[55],16500 nM
same,GI50,[56],478 nM
same,TGI,[56],7430 nM
same,GI50,[57],326 nM
same,TGI,[57],2780 nM
same,GI50,[58],564 nM
same,TGI,[58],30600 nM

# Reference: PubChem BioAssay (NCI)
